BindingDB's records for patent US20240368133 (Confo Therapeutics, 2024)

biological target: T1, Type-2 angiotensin II receptor/Low affinity immunoglobulin epsilon Fc receptor (Homo sapiens, UniProt P06734+P50052); assay: Radioligand Assay
T1 sequence (P50052 whole entry): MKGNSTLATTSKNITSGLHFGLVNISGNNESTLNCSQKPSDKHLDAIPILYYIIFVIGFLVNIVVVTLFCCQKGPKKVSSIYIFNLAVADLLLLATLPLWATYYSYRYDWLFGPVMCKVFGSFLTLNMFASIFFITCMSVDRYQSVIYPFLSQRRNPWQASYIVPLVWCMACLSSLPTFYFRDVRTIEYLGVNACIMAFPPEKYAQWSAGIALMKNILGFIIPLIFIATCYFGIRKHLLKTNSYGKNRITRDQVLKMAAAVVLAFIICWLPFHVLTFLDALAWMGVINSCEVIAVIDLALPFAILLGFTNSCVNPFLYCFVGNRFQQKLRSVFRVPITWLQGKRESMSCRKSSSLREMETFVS
T1 sequence (P06734 whole entry): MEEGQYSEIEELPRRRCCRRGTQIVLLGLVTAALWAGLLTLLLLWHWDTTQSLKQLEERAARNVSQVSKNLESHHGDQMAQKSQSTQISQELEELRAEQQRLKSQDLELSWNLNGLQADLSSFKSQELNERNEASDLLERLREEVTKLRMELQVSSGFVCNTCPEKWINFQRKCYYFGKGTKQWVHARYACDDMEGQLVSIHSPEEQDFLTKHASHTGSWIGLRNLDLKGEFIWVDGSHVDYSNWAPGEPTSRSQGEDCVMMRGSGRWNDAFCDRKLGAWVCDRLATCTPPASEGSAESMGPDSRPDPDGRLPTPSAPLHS
Protocol: All synthesized ligands were evaluated in a radioligand assay by displacing 125I-[Sar1, Ile8]-Angiotensin II (Perkin Elmer, NEX248050UC) from human AT2R fused to Cb23 or human/rodent/cynomolgus/minipig/dog WT AT2R in HEK-293 cells membrane preparations, using C21 (Vicore Pharma) and Angiotensin II (endogenous ligand) as reference. The affinity was determined using an eight-point dose-response curve, each point performed in duplicates. The compounds were also evaluated in a counterscreen binding assay for displacement of 125I-[Sar1, Ile8]-Angiotensin II binding to human AT1R in HEK-293 cell membranes. For AT1R, the percent displacement was determined at 1 μM and […] or using an eight-point dose-response curve, each point performed in duplicates with Candesartan and Losartan used as reference.For the AT2R/AT1R binding assays, cell membranes, expressing AT2R_Cb23, AT2R or AT1R, were incubated with 0.05 nM 125I-[Sarl, Ile8]-Ang II. The ligand competition assay was performed in a total volume of 100 μL assay buffer (50 mM Tris, 5 mM MgCl2, 1 mM EDTA, 0.1% BSA, pH 7.4), at concentrations ranging from 1 μM to 10 μM. For each experiment, each ligand concentration was tested in duplicate. Non-specific binding (NSB) was determined by the inclusion of 10 μM unlabeled [Sarl]-Ang II (Sigma Aldrich). The reaction was initiated by the addition of radioligand, after which the plates were incubated at 25° C. for one hour. The reaction was terminated by rapid filtration using a vacuum harvester, applying six washes with 100 μL of ice-cold wash buffer (50 mM Tris.HCl, pH 7.4). The filter plates GF/C (Perkin Elmer) were pre-soaked in 0.5% PEI. The residual amount of radioactivity was determined via liquid scintillation counting. IC50 values, representing the concentration at which each ligand displaced 50% of 125I-[Sarl, Ile8]-Ang II, were calculated using GraphPad Prism 7.02 by applying a Non-linear regression equation (variable slope, four parameters) on the data.

SMILES	IC50 [µM]
CCCCNC(=O)NS(=O)(=O)c1ccc(C(F)(F)F)cc1N1CCN(Cc2nc3ccccc3n2C)CC1 [US20240368133, Compound A-10]	3.36
c1ccc2sc(CN3CCN(c4cc(NCC5CC5)ccc4-c4nn[nH]n4)CC3)nc2c1 [US20240368133, Compound A-62]	1.68
CC(C)Cc1ccc(-c2nn[nH]n2)c(N2CCN(Cc3nc4ncccc4o3)CC2)c1 [US20240368133, Compound A-71]	18.5
CCc1nc2ccc(NC(=O)c3ccccc3)cc2c(=O)n1CC1CCN(c2ccccc2-c2nn[nH]n2)CC1 [US20240368133, Compound A-245]	9.97
